Experimental findings from patent US11306102B2, “1,3-di-substituted ketene compound and application thereof” (BEBETTER MED INC., priority 2017, dated 2022) are described below.

The target in data set [1] is T1, PPARα (Homo sapiens, UniProt Q07869).
T1 construct: expressed in transfected cells; host or cells: Hela cells
T1 sequence (Q07869 1-468): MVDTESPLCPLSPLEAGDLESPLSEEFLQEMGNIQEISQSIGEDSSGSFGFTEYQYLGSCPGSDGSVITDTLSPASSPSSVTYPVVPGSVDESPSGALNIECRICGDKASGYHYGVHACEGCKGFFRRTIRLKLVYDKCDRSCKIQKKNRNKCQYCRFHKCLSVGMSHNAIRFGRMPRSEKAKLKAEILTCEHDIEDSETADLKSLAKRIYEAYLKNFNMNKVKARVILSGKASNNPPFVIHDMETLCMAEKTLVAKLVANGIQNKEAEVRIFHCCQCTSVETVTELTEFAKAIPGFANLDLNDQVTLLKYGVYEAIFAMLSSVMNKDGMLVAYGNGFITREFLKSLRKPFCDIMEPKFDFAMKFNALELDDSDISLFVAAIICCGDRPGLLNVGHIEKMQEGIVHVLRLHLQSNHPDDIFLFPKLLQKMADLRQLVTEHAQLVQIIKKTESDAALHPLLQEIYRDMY
Put plainly: Hela cell/luciferase reporter gene method, PPARα agonist activity. It is filed as cell-based. The following applies: for EC50: Hela cells, pPPRE3-TK-Luciferase reporter, 24 hrs incubation, read-out: agonistic activity on PPAα (EC50); for ratio of PPARγ/PPARα activated (EC50 ratio): under the experimental conditions of the present disclosure. Put shortly:
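HeLa cells co-transfected with pPPRE3-TK-firefly luciferase and PPARα, δ or γ expression vector (reporter:receptor 6:1, 8:1, 2:1 respectively). Cells exposed 24 h at 37 °C in 1% FBS medium to 8-point 4-fold dilution series; luciferase luminescence read, EC50 derived.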

The nature of data set [2]: Pharmacokinetic (PK) experiments after intragastric administration in rats. The data set is classed as in vivo, SD rats. The following applies: for AUC(0-inf) / AUC(0-t) / Cmax / Tmax / half-life: male, SD, rat, plasma, po, intragastric administration 20 mg/kg; for half-life: read-out: Terminal T1/2 (converted). The procedure: Male SD rats, weighing 250-300 grams, were fasted overnight before testing. The test compound was dissolved in 30% sulfobutyl-R-cyclodextrin (SBE-β-CD) and administered intragastrically at a dose of 20 mg/kg. Blood was collected 15 minutes, 30 minutes, and 1, 2, 3, 4, […] and 24 hours after the administration. About 0.3 ml of blood was collected at each time point, placed in a centrifuge tube containing K2-EDTA (dipotassium ethylenediamine tetraacetate) and centrifuged (2,000 g, 10 minutes, 4° C.) to take the plasma, which was stored in an ultra-low temperature refrigerator at −80° C. A 50 μL plasma sample was mixed with 5 μl of internal standard (IS) and extracted with ethyl acetate. The residue was redissolved in acetonitrile after drying under vacuum. The sample was filtered and injected into an LC-MS/MS for analysis.

For `CSc1ccc2cc(C(=O)/C=C/c3cc(C)c(OC(C)(C)C(=O)O)c(C)c3)sc2c1` [Compound 81, (E)-2-(2,6-dimethyl-4-(3-(6-(methylthio)benzo[b]thiophen-2-yl)-3-oxoprop-1-en-1-yl)phenoxy)-2-methylpropanoic acid], the EC50 in data set [1] is 24.9 nM. In data set [2], the AUC(0-inf) came to 811 ng·h/mL, the exposure AUC(0-t) amounted to 806 ng·h/mL, the Cmax turned out to be 302 ng/mL and the time of peak concentration (Tmax) came to 15 min. Also, in data set [2], the half-life was 201 min, the “absorption after oral administration compared with Elafibranor (in words)” value is reported as “good absorption”, the “blood exposure after oral administration compared with Elafibranor (in words)” value is recorded as “highly effective blood exposure” and the “half-life after oral administration compared with Elafibranor (in words)” value (shortened to “half-life … compared with Elafibranor (in words)”) was “significantly prolonged half-life”.

For the compound `CSc1ccc2cc(C(=O)/C=C/c3cc(Cl)c(OC(C)(C)C(=O)O)c(Cl)c3)oc2c1` [Compound 100, (E)-2-(2,6-dichloro-4-(3-(6-(methylthio)benzofuran-2-yl)-3-oxoprop-1-en-1-yl)phenoxy)-2-methylpropanoic acid], in data set [1], the EC50 was 2 nM and the “ratio of PPARγ/PPARα activated (EC50 ratio)” value is on record as 237.55. Moreover, in data set [2], the AUC(0-inf) is 14000 ng·h/mL, the AUC(0-t) turned out to be 13800 ng·h/mL, the Cmax stood at 7730 ng/mL and the time to peak (Tmax) turned out to be 15 min. Also, in data set [2], the half-life was 265 min, the “absorption after oral administration compared with Elafibranor (in words)” value is “good absorption”, the “blood exposure after oral administration compared with Elafibranor (in words)” value is given as “highly effective blood exposure” and the “half-life … compared with Elafibranor (in words)” value is recorded as “significantly prolonged half-life”.

`CSc1ccc2c(C)c(C(=O)/C=C/c3cc(Cl)c(OC(C)(C)C(=O)O)c(Cl)c3)oc2c1` [Compound 103, (E)-2-(2,6-dichloro-4-(3-(3-methyl-6-(methylthio)benzofuran-2-yl)-3-oxoprop-1-en-1-yl)phenoxy)-2-methylpropanoic acid]: in data set [1], the EC50 was determined as 8.7 nM and the “ratio of PPARγ/PPARα activated (EC50 ratio)” value amounted to 90.59. Moreover, in data set [2], the AUC(0-inf) stood at 50900 ng·h/mL, the AUC(0-t) came to 50400 ng·h/mL, the peak level (Cmax) was 5030 ng/mL and the Tmax came to 245 min. Further, in data set [2], the half-life was 197 min, the “absorption after oral administration compared with Elafibranor (in words)” value was “good absorption”, the “blood exposure after oral administration compared with Elafibranor (in words)” value is reported as “highly effective blood exposure” and the “half-life … compared with Elafibranor (in words)” value is listed as “significantly prolonged half-life”.
